Experiments:
Format in all cases: cell-based
Conditions in all cases: compounds at 50 nM and 500 nM, 24 hours
[1] = molecular target: T1, IKZF2 (Homo sapiens, UniProt Q96SW2+Q9UKS7); assay: Western-blot assay, substrate protein degradation in hPBMCs: IKZF2
T1 construct: effects of the compounds of the present disclosure on the expression of target proteins in cells; endogenous in cells; host or cells: human PBMCs (hPBMCs)

[2] = molecular target: T2, CK1α (Homo sapiens, UniProt P48729+Q96SW2); assay: Western-blot assay, substrate protein degradation in hPBMCs: CK1α
T2 construct: effects of the compounds of the present disclosure on the expression of target proteins in cells; endogenous in cells; host or cells: human PBMCs (hPBMCs)

[3] = molecular target: T3, IKZF1 (Homo sapiens, UniProt Q13422+Q96SW2); assay: Western-blot assay, substrate protein degradation in hPBMCs: IKZF1
T3 construct: effects of the compounds of the present disclosure on the expression of target proteins in cells; endogenous in cells; host or cells: human PBMCs (hPBMCs)

[4] = molecular target: T4, GSPT1 (Homo sapiens, UniProt P15170+Q96SW2); assay: Western-blot assay, substrate protein degradation in hPBMCs: GSPT1
T4 construct: effects of the compounds of the present disclosure on the expression of target proteins in cells; endogenous in cells; host or cells: human PBMCs (hPBMCs)

[5] = molecular target: T5, WEE1 (Homo sapiens, UniProt P30291+Q96SW2); assay: Western-blot assay, substrate protein degradation in hPBMCs: WEE1
T5 construct: effects of the compounds of the present disclosure on the expression of target proteins in cells; endogenous in cells; host or cells: human PBMCs (hPBMCs)

[6] = molecular target: T6, IKZF3 (Homo sapiens, UniProt Q96SW2+Q9UKT9); assay: Western-blot assay, substrate protein degradation in hPBMCs: IKZF3
T6 construct: effects of the compounds of the present disclosure on the expression of target proteins in cells; endogenous in cells; host or cells: human PBMCs (hPBMCs)
T6 sequence (Q9UKT9 whole entry): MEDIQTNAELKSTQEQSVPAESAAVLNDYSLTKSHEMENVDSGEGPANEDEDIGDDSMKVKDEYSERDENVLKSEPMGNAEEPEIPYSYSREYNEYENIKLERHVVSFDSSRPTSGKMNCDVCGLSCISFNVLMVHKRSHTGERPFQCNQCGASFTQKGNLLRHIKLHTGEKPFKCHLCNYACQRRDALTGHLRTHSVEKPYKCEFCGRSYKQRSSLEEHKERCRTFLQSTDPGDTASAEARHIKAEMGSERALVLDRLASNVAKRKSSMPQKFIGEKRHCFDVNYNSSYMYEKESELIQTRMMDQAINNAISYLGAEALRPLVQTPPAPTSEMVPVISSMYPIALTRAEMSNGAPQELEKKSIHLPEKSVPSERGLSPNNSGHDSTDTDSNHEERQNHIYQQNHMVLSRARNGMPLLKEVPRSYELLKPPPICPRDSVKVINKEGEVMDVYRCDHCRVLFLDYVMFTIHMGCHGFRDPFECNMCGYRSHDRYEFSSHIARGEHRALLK
T6 sequence (Q96SW2 whole entry): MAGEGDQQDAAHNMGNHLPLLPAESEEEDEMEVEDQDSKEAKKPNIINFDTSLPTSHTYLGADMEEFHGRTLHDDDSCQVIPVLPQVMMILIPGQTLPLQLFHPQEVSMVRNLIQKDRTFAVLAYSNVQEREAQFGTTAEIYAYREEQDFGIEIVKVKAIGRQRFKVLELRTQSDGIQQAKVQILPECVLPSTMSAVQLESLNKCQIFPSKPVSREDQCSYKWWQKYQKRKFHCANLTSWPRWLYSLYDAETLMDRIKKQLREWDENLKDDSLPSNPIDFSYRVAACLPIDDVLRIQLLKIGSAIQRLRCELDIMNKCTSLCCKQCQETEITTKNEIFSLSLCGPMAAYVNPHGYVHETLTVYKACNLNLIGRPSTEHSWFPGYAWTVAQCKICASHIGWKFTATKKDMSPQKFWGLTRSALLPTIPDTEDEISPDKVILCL
T6 sequence (Q16531 whole entry partner): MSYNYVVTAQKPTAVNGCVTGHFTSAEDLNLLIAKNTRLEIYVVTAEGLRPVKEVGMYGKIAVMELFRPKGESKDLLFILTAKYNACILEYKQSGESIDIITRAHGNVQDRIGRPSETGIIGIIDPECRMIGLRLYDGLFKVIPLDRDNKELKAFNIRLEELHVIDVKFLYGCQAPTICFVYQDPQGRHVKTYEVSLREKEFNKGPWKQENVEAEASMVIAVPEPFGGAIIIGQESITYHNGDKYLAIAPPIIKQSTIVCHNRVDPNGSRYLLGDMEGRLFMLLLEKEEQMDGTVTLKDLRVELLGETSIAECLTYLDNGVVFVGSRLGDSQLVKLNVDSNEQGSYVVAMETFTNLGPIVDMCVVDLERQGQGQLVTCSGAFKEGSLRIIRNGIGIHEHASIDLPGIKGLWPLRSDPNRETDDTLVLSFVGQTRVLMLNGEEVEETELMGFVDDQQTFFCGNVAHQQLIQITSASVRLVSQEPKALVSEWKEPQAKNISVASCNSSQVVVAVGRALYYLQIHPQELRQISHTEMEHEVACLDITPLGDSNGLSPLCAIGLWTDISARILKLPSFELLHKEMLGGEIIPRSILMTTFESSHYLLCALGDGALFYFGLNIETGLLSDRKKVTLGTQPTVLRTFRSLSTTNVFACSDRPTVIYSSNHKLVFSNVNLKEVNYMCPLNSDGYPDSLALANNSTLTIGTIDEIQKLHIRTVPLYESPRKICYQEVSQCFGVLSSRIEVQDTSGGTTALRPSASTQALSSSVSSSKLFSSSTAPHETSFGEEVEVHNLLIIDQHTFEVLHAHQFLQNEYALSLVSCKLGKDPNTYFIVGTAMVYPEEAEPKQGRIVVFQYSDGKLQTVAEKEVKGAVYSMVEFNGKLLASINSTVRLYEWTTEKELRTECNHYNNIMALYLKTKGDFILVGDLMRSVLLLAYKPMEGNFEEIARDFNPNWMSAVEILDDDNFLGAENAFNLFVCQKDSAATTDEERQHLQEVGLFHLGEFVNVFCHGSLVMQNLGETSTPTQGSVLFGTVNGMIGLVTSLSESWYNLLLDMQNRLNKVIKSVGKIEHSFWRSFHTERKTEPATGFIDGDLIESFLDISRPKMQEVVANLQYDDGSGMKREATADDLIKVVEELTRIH

T5 sequence (P30291 whole entry): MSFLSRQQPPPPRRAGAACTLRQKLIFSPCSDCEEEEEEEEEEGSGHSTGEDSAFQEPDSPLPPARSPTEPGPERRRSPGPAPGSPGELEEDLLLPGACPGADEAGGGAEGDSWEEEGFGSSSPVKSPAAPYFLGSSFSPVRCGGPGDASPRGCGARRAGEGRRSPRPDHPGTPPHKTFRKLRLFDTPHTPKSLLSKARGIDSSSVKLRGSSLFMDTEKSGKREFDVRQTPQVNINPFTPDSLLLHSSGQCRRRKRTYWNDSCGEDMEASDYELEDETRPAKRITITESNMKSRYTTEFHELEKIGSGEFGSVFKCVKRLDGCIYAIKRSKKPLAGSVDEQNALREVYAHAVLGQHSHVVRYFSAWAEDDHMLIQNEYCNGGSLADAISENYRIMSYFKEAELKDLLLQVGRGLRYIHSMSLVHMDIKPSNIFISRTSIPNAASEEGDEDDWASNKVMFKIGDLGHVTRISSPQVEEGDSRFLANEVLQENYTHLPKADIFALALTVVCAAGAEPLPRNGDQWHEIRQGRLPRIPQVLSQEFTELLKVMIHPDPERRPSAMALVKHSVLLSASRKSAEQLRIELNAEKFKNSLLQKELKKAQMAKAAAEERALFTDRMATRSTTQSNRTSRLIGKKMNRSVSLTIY
T5 sequence (Q96SW2 whole entry): as the sequence (Q96SW2 whole entry) above
T5 sequence (Q16531 whole entry partner): as the sequence (Q16531 whole entry partner) above
T1 sequence (Q9UKS7 whole entry): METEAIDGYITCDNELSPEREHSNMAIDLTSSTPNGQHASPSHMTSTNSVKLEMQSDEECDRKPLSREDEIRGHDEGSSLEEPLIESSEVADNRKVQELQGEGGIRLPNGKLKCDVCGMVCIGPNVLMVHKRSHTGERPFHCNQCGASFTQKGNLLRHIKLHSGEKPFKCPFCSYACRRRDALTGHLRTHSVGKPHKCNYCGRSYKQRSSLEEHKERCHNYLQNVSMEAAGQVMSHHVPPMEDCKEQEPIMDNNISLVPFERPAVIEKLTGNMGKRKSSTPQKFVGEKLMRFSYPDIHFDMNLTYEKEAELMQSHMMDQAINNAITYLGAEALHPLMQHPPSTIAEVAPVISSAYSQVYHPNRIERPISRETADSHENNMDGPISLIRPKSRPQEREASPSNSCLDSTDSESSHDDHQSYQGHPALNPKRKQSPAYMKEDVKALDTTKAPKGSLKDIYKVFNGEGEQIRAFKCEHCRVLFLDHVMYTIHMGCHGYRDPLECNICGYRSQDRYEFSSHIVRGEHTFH
T1 sequence (Q96SW2 whole entry): as the sequence (Q96SW2 whole entry) above
T1 sequence (Q16531 whole entry partner): as the sequence (Q16531 whole entry partner) above
T2 sequence (P48729 whole entry): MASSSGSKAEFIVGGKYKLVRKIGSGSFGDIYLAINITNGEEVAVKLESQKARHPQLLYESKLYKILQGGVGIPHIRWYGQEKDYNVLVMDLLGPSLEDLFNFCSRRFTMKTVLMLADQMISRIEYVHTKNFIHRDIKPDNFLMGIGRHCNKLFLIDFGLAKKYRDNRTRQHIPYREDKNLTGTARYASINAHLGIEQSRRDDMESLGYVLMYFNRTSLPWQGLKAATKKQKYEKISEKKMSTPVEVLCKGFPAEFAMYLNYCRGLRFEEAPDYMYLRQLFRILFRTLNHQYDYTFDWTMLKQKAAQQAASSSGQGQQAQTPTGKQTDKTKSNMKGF
T2 sequence (Q96SW2 whole entry): as the sequence (Q96SW2 whole entry) above
T2 sequence (Q16531 whole entry partner): as the sequence (Q16531 whole entry partner) above
T3 sequence (Q13422 whole entry): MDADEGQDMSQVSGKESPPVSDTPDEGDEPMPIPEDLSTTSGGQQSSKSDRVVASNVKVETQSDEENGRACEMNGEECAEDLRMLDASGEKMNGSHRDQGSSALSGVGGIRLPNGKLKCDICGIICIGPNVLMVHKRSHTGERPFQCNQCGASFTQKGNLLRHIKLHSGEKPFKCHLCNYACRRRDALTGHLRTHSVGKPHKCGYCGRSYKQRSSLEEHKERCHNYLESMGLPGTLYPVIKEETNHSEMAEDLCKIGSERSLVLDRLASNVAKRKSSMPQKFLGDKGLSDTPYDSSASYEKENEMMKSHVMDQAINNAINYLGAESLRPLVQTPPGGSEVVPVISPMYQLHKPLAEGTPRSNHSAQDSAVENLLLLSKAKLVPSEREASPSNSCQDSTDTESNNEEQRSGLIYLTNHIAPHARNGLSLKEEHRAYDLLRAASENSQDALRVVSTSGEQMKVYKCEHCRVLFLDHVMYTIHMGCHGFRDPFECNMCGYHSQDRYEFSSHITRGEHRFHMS
T3 sequence (Q96SW2 whole entry): as the sequence (Q96SW2 whole entry) above
T3 sequence (Q16531 whole entry partner): as the sequence (Q16531 whole entry partner) above

SMILES	IKZF2 substrate protein remaining % [1]	CK1α substrate protein remaining % [2]	IKZF1 substrate protein remaining % [3]	GSPT1 substrate protein remaining % [4]	WEE1 substrate protein remaining % [5]	IKZF3 substrate protein remaining % [6]
O=C1CCN(N2C(=O)c3ccc(CN4CCC(c5ccccc5)CC4)cc3C2=O)C(=O)N1 [GT-06803, 2-(2,4-dioxotetrahydropyrimidin-1(2H)-yl)-5-((4-phenylpiperidin-1-yl)methyl)isoindoline-1,3-dione]	B ("B" is defined as 80%< substrate protein remaining %≤ 100%)	A ("A" is defined as 0% ≤ substrate protein remaining % ≤ 80%)	B ("B" is defined as 80%< substrate protein remaining %≤ 100%)	B ("B" is defined as 80%< substrate protein remaining %≤ 100%)	B ("B" is defined as 80%< substrate protein remaining %≤ 100%)	B ("B" is defined as 80%< substrate protein remaining %≤ 100%)
O=C1CCN(N2C(=O)c3ccc(CN4CCC(c5cccc(Br)c5)CC4)cc3C2=O)C(=O)N1 [GT-06804, 5-((4-(3-bromophenyl)piperidin-1-yl)methyl)-2-(2,4-dioxotetrahydropyrimidin-1(2H)-yl)isoindoline-1,3-dione]	B ("B" is defined as 80%< substrate protein remaining %≤ 100%)	A ("A" is defined as 0% ≤ substrate protein remaining % ≤ 80%)	B ("B" is defined as 80%< substrate protein remaining %≤ 100%)	B ("B" is defined as 80%< substrate protein remaining %≤ 100%)	B ("B" is defined as 80%< substrate protein remaining %≤ 100%)	B ("B" is defined as 80%< substrate protein remaining %≤ 100%)
O=C1CCN(N2C(=O)c3ccc(CN4CCC(c5ccc(Br)cc5)CC4)cc3C2=O)C(=O)N1 [GT-06805, 5-((4-(4-bromophenyl)piperidin-1-yl)methyl)-2-(2,4-dioxotetrahydropyrimidin-1(2H)-yl)isoindoline-1,3-dione]	B ("B" is defined as 80%< substrate protein remaining %≤ 100%)	A ("A" is defined as 0% ≤ substrate protein remaining % ≤ 80%)	B ("B" is defined as 80%< substrate protein remaining %≤ 100%)	B ("B" is defined as 80%< substrate protein remaining %≤ 100%)	B ("B" is defined as 80%< substrate protein remaining %≤ 100%)	B ("B" is defined as 80%< substrate protein remaining %≤ 100%)
O=C1CCN(N2C(=O)c3ccc(CN4CCC(c5ccccc5F)CC4)cc3C2=O)C(=O)N1 [GT-06877, 2-(2,4-dioxotetrahydropyrimidin-1(2H)-yl)-5-((4-(2-fluorophenyl)piperidin-1-yl)methyl)isoindoline-1,3-dione]	B ("B" is defined as 80%< substrate protein remaining %≤ 100%)	A ("A" is defined as 0% ≤ substrate protein remaining % ≤ 80%)	B ("B" is defined as 80%< substrate protein remaining %≤ 100%)	B ("B" is defined as 80%< substrate protein remaining %≤ 100%)	B ("B" is defined as 80%< substrate protein remaining %≤ 100%)	B ("B" is defined as 80%< substrate protein remaining %≤ 100%)
O=C1CCN(N2C(=O)c3ccc(CN4CCC(c5ccc(F)cc5)CC4)cc3C2=O)C(=O)N1 [GT-06878, 2-(2,4-dioxotetrahydropyrimidin-1(2H)-yl)-5-((4-(4-fluorophenyl)piperidin-1-yl)methyl)isoindoline-1,3-dione]	B ("B" is defined as 80%< substrate protein remaining %≤ 100%)	A ("A" is defined as 0% ≤ substrate protein remaining % ≤ 80%)	B ("B" is defined as 80%< substrate protein remaining %≤ 100%)	A ("A" is defined as 0% ≤ substrate protein remaining % ≤ 80%)	B ("B" is defined as 80%< substrate protein remaining %≤ 100%)	B ("B" is defined as 80%< substrate protein remaining %≤ 100%)
O=C1CCN(N2C(=O)c3ccc(CN4CCC(c5ccccc5C(F)(F)F)CC4)cc3C2=O)C(=O)N1 [GT-06879, 2-(2,4-dioxotetrahydropyrimidin-1(2H)-yl)-5-((4-(2-(trifluoromethyl)phenyl)piperidin-1-yl)methyl)isoindoline-1,3-dione]	B ("B" is defined as 80%< substrate protein remaining %≤ 100%)	B ("B" is defined as 80%< substrate protein remaining %≤ 100%)	B ("B" is defined as 80%< substrate protein remaining %≤ 100%)	A ("A" is defined as 0% ≤ substrate protein remaining % ≤ 80%)	B ("B" is defined as 80%< substrate protein remaining %≤ 100%)	B ("B" is defined as 80%< substrate protein remaining %≤ 100%)
O=C1CCN(N2C(=O)c3ccc(CN4CCC(c5cccc(C(F)(F)F)c5)CC4)cc3C2=O)C(=O)N1 [GT-06880, 2-(2,4-dioxotetrahydropyrimidin-1(2H)-yl)-5-((4-(3-(trifluoromethyl)phenyl)piperidin-1-yl)methyl)isoindoline-1,3-dione]	B ("B" is defined as 80%< substrate protein remaining %≤ 100%)	B ("B" is defined as 80%< substrate protein remaining %≤ 100%)	B ("B" is defined as 80%< substrate protein remaining %≤ 100%)	B ("B" is defined as 80%< substrate protein remaining %≤ 100%)	A ("A" is defined as 0% ≤ substrate protein remaining % ≤ 80%)	B ("B" is defined as 80%< substrate protein remaining %≤ 100%)
Cc1ccc(N2CCN(Cc3ccc4c(c3)CN(N3CCC(=O)NC3=O)C4=O)CC2)c(C)c1 [GT-06882, 1-(5-((4-(2,4-dimethylphenyl)piperazin-1-yl)methyl)-1-oxoisoindolin-2-yl)dihydropyrimidine-2,4(1H,3H)-dione]	B ("B" is defined as 80%< substrate protein remaining %≤ 100%)	B ("B" is defined as 80%< substrate protein remaining %≤ 100%)	A ("A" is defined as 0% ≤ substrate protein remaining % ≤ 80%)	A ("A" is defined as 0% ≤ substrate protein remaining % ≤ 80%)	A ("A" is defined as 0% ≤ substrate protein remaining % ≤ 80%)	B ("B" is defined as 80%< substrate protein remaining %≤ 100%)
Cc1ccc(Cl)cc1N1CCN(Cc2ccc3c(c2)CN(N2CCC(=O)NC2=O)C3=O)CC1 [GT-06883, 1-(5-((4-(5-chloro-2-methylphenyl)piperazin-1-yl)methyl)-1-oxoisoindolin-2-yl)dihydropyrimidine-2,4(1H,3H)-dione]	B ("B" is defined as 80%< substrate protein remaining %≤ 100%)	B ("B" is defined as 80%< substrate protein remaining %≤ 100%)	A ("A" is defined as 0% ≤ substrate protein remaining % ≤ 80%)	A ("A" is defined as 0% ≤ substrate protein remaining % ≤ 80%)	A ("A" is defined as 0% ≤ substrate protein remaining % ≤ 80%)	B ("B" is defined as 80%< substrate protein remaining %≤ 100%)
O=C1CCN(N2Cc3cc(CN4CCC(c5ccc(Br)cc5)CC4)ccc3C2=O)C(=O)N1 [GT-06886, 1-(5-((4-(4-bromophenyl)piperidin-1-yl)methyl)-1-oxoisoindolin-2-yl)dihydropyrimidine-2,4(1H,3H)-dione]	A ("A" is defined as 0% ≤ substrate protein remaining % ≤ 80%)	B ("B" is defined as 80%< substrate protein remaining %≤ 100%)	B ("B" is defined as 80%< substrate protein remaining %≤ 100%)	A ("A" is defined as 0% ≤ substrate protein remaining % ≤ 80%)	B ("B" is defined as 80%< substrate protein remaining %≤ 100%)	B ("B" is defined as 80%< substrate protein remaining %≤ 100%)
O=C1CCN(N2Cc3cc(CN4CCC(c5ccccc5Cl)CC4)ccc3C2=O)C(=O)N1 [GT-06887, 1-(5-((4-(2-chlorophenyl)piperidin-1-yl)methyl)-1-oxoisoindolin-2-yl)dihydropyrimidine-2,4(1H,3H)-dione]	A ("A" is defined as 0% ≤ substrate protein remaining % ≤ 80%)	B ("B" is defined as 80%< substrate protein remaining %≤ 100%)	B ("B" is defined as 80%< substrate protein remaining %≤ 100%)	A ("A" is defined as 0% ≤ substrate protein remaining % ≤ 80%)	A ("A" is defined as 0% ≤ substrate protein remaining % ≤ 80%)	B ("B" is defined as 80%< substrate protein remaining %≤ 100%)
O=C1CCN(N2Cc3cc(CN4CCC(c5ccc(Cl)cc5)CC4)ccc3C2=O)C(=O)N1 [GT-06888, 1-(5-((4-(4-chlorophenyl)piperidin-1-yl)methyl)-1-oxoisoindolin-2-yl)dihydropyrimidine-2,4(1H,3H)-dione]	A ("A" is defined as 0% ≤ substrate protein remaining % ≤ 80%)	B ("B" is defined as 80%< substrate protein remaining %≤ 100%)	B ("B" is defined as 80%< substrate protein remaining %≤ 100%)	A ("A" is defined as 0% ≤ substrate protein remaining % ≤ 80%)	A ("A" is defined as 0% ≤ substrate protein remaining % ≤ 80%)	B ("B" is defined as 80%< substrate protein remaining %≤ 100%)

Source: patent EP4722207A1, “OXOISOINDOLINYL-SUBSTITUTED TETRAHYDROPYRIMIDINEDIONE DERIVATIVE AND USE THEREOF” (Gluetacs Therapeutics (Shanghai) Co., Ltd., priority 2023, dated 2024)
